Results reported in US20130012443A1, “METHODS OF TREATMENT OF CENTRAL NERVOUS SYSTEM HEMORRHAGE USING PROTOPORPHYRIN IX-FE COMPOUNDS” (priority 2011, published 2013).
Entries after “also recorded” stand apart in the source; their conditions may differ.

Columns and labels:
[1] = bound to albumin; cited from earlier work
[2] = system: mouse model of intracerebral hemorrhage (ICH); test: Evan's blue leakage (blood-brain barrier disruption) after ICH induced by collagenase injection; assay type: in vivo, mice; settings: 26 mg/kg 1 or 3 hours after collagenase and again 24 h later, v. vehicle
[3] = system: mouse model of intracerebral hemorrhage (ICH); test: Evan's blue leakage (blood-brain barrier disruption) after ICH induced by striatal autologous blood injection; assay type: in vivo, mice
Procedure: Mice were treated with 26 mg/kg hemin i.p. 1 hour later, as a one-time dose, or repeated in 24 hours; controls received vehicle i.p. only. Evan's blue leakage into the striatal parenchyma, a marker of blood-brain barrier disruption, was quantified at 3 days. […] Sham mice received anesthesia and needle trauma only. *P<0.05, **P<0.01, hemin treated v. vehicle-treated controls.
The effect of protoporphyrin IX-Fe compounds on subsequent exposure of nervous tissue to toxic doses of hemin was investigated. A mouse model of intracerebral hemorrhage (ICH) was used. ICH was induced in mice (6-7/condition, 9-10 weeks old) by injecting 25 μl autologous blood (FIG. 1A) into the right striatum. One hour after hemorrhage induction, mice were treated with (a) hemin at 26 mg/kg as a one-time dose, (b) hemin at 26 mg/kg at 1 hour after induction and then repeated at 25 hours after induction, or (c) sterile saline solution only. […] Mice were then treated with vehicle or hemin 1 hour later, with repeated dose 24 hours later. All treatments were administered via intraperitoneal injection. Three days after hemorrhage induction, brains were harvested after Evans blue injection, and slices were examined for Evan's blue fluorescence. […] Evan's blue leakage into the striatal parenchyma was quantified as a marker of blood-brain barrier disruption (FIGS. 1A-1B).

heme oxygenase-1 (HO-1) = test: HO-1 expression in mouse brain by immunoblotting; assay type: in vivo; settings: 26 mg/kg i.p. for 1 or 2 days, v. saline; for HO-1 expression in cortex (CTX) / HO-1 expression in striatum (STR): 24 hours after last dose, FIG. 4
Procedure: Mice received 26 mg/kg hemin i.p for 1 or 2 days, or an equal volume of saline. Striatal HO-1 expression was assessed 24 hours after the last hemin dose. Actin levels provide a gel-loading control. *P<0.05 v. expression in saline-treated controls, n=4/conditon.
Mice received 26 mg/kg hemin or heme arginate i.p for 1 or 2 days, or an equal volume of saline. HO-1 expression was assessed 24 hours after last dose. Actin serves as a control.
The response elicited by protoporphyrin IX-Fe compounds was investigated by administering 26 mg/kg hemin, or an equal volume of saline for 1 or 2 days via intraperitoneal injection. Expression of heme oxygenase-1 (HO-1) in striatal cells was assessed 24 hours after the last hemin dose. Four mice were used for each experimental group. Actin was used as a gel-loading control. HO-1 expression was quantified by immunoblotting as previously described (Neuropharmacology 2011 60:423-431); band density was analyzed using Kodak 1D software (Kodak, Rochester, N.Y.) (FIG. 3).
The effect of protoporphyrin IX-Fe compounds on HO-1 expression in nervous tissue was further investigated using heme arginate and examining the response in the cortex in addition to the striatum. Mice received 26 mg/kg hemin or heme arginate for 1 or 2 days, or an equal volume of saline. All treatments were administered intraperitoneally. HO-1 expression was quantified by immunoblotting as previously described (Neuropharmacology 2011 60:423-431).

HO-1 = settings: low doses; cited from earlier work
striatal cells = test: Striatal cell viability by MTT assay after ICH; assay type: in vivo, mice; settings: v. vehicle
Procedure: Intracerebral hemorrhage was modeled in 2-3 month old mice (5-6/condition) by striatal injection of autologous blood (25 μl) or collagenase (0.014 units), followed 1 or 3 hours later by 4 mg/kg hemin i.p. (repeated 24 h later) or vehicle. Five days after ICH, striatal cell viability was quantified by MTT assay. *P<0.05, **P<0.01, hemin treated v. vehicle-treated controls.
Whether protoporphyrin IX-Fe compounds could reduce hemorrhage-induced cell death in nervous tissues was investigated using the same mouse model of ICH. Intracerebral hemorrhage was modeled in 2-3 month old mice (5-6/condition) by striatal injection of autologous blood (25 μl) or collagenase (0.014 units), followed 1 or 3 hours later by 4 mg/kg hemin i.p. (repeated 24 h later) or vehicle. Five days after ICH, striatal cell viability was quantified by MTT assay (Chen et al., J Neurosurg 2011 114:1159-67) after striatal cell dissociation (FIG. 2). ICH was also modeled by striatal injection of […] autologous blood, followed by hemin (26 mg/kg) or vehicle treatment at 3 and 27 hours after ICH.

Substance	blood vessel inflammation and damage (phlebitis) [1]	stability [1]	Evan's blue leakage into the striatal parenchyma, a marker of blood-brain barrier disruption [2]	Evan's blue leakage into the striatal parenchyma, a marker of blood-brain barrier disruption ([3]; striatal autologous blood injection, 26 mg/kg i.p. 1 hour later, one-time dose or repeated in 24 hours, quantified at 3 days, v. vehicle, 26 mg/kg)	Evan's blue fluorescence in brain slices ([3]; three days after hemorrhage induction, DsRed filter, data not shown)	HO-1 expression in cortex (CTX) (heme oxygenase-1 (HO-1))	HO-1 expression in striatum (STR) (heme oxygenase-1 (HO-1))	Striatal HO-1 expression (heme oxygenase-1 (HO-1); 24 hours after the last dose, FIG. 3)	HO-1 expression in cultured cells (HO-1)	striatal cell viability (MTT assay) (striatal cells; autologous blood (25 μl) or collagenase (0.014 units), 4 mg/kg i.p. 1 or 3 hours later, repeated 24 h later, five days after ICH, 4 mg/kg)	MTT staining intensity / tissue viability (striatal cells; autologous blood, 26 mg/kg at 3 and 27 hours after ICH, data not shown)
chloride salt of protoporphyrin IX-Fe^3+ [hemin]	less blood vessel inflammation and damage (phlebitis)	more stable	decreases blood-brain barrier disruption	attenuated blood-brain barrier disruption following simulated hemorrhage in a dose-dependent manner; also recorded: decreases blood-brain barrier disruption	Reduced fluorescence	increases HO-1 expression	increases HO-1 expression	increased expression of HO-1; also recorded: increases expression of the protective enzyme heme oxygenase-1 (HO-1)	could induce HO-1 expression	increased striatal cell viability; also recorded: increases peri-hematomal cell viability	increased tissue viability
heme arginate						increases HO-1 expression	increases HO-1 expression				
